{"source": "patent US20230346889A9", "about": "“TREATMENT OF ACUTE HEART FAILURE” (AnaCardio R&D AB, priority 2019, published 2023)", "tested_on": "patients with advanced CHF and reduced EF", "assay": "Trial echocardiography", "format": "in vivo, human", "experimental": "Echocardiography was performed by a technician blinded to treatment allocation and all echo images were analyzed and interpreted by one independent investigator blinded to treatment allocation and clinical history of the patients. Two dimensional images were recorded with a Vivid 7/E9 ultrasound system (GE, Horten, Norway) with a 3 MHz Doppler transducer. A detailed echocardiographic examination including dimensions, cardiac systolic and diastolic function, valve performance and systolic pulmonary artery pressure was performed at baseline (Table 5). A shorter protocol including left ventricular dimensions and function, stroke volume and cardiac output was used for comparison of changes over time (Table 9 and 10). Left ventricular end-systolic and end-diastolic volumes and left ventricular ejection fraction (LVEF) were measured using the modified biplane Simpson's method. LVEF was also measured using the Teichholz method. Because of missing data on LVEF by the Simpson's method due to low image quality, changes in LVEF over time was calculated using the Teichholz method. Left atrial volumes were calculated using the biplane area length method from the apical four- and two-chamber views and indexed to the body surface area. The E/e′ ratio was calculated using the peak E-wave velocity of the mitral inflow and the averaged of septal and lateral tissue Doppler recordings. Tricuspid annular peak systolic excursion (TAPSE) was assessed with M-mode echocardiography. Speckle tracking was used for left ventricular longitudinal strain. […] Stroke volume was derived from the left ventricular outflow tract (LVOT) area and the LVOT […] time integral (VTI) (LVOT area×LVOT VTI). Cardiac output was calculated as the echo derived stroke volume×heart rate.", "note": "“Also recorded” adds a separate entry of the source."}
{"compound": "CCCCCCCC(=O)OC[C@H](NC(=O)[C@H](CO)NC(=O)CN)C(=O)N[C@@H](Cc1ccccc1)C(=O)N[C@@H](CC(C)C)C(=O)N[C@@H](CO)C(=O)N1CCC[C@H]1C(=O)N[C@@H](CCC(=O)O)C(=O)N[C@@H](Cc1cnc[nH]1)C(=O)N[C@@H](CCC(N)=O)C(=O)N[C@@H](CCCNC(=N)N)C(=O)N[C@H](C(=O)N[C@@H](CCC(N)=O)C(=O)N[C@@H](CCC(N)=O)C(=O)N[C@@H](CCCNC(=N)N)C(=O)N[C@@H](CCCCN)C(=O)N[C@@H](CCC(=O)O)C(=O)N[C@@H](CO)C(=O)N[C@@H](CCCCN)C(=O)N[C@@H](CCCCN)C(=O)N1CCC[C@H]1C(=O)N1CCC[C@H]1C(=O)N[C@@H](C)C(=O)N[C@@H](CCCCN)C(=O)N[C@@H](CC(C)C)C(=O)N[C@@H](CCC(N)=O)C(=O)N1CCC[C@H]1C(=O)N[C@@H](CCCNC(=N)N)C(=O)O)C(C)C", "note": "[Ghrelin]", "values": [{"measurement": "CO (echocardiography)", "setting": "2-5 days FU", "value": "3.8 ± 1.3", "unit": "L/min"}, {"measurement": "E/e′", "setting": "2-5 days FU", "value": "16.2 ± 8.3", "unit": "ratio"}, {"measurement": "LVEDD", "setting": "2-5 days FU", "value": "66 ± 10", "unit": "mm"}, {"measurement": "LVEF", "setting": "2-5 days FU", "value": "28.5 ± 11.9", "unit": "%"}, {"measurement": "LVESD", "setting": "2-5 days FU", "value": "57 ± 11", "unit": "mm"}, {"measurement": "SV (echocardiography)", "setting": "2-5 days FU", "value": "52.5 ± 20.6", "unit": "mL"}, {"measurement": "TAPSE", "setting": "2-5 days FU", "value": "11.8 ± 6.0", "unit": "mm"}, {"measurement": "Strain", "setting": "2-5 days FU, n = 12", "value": "10.4 ± 6.4", "unit": "%"}, {"measurement": "CO (echocardiography)", "setting": "+30 min", "value": "4.1 ± 1.5", "unit": "L/min"}, {"measurement": "E/e′", "setting": "+30 min", "value": "15.3 ± 6.6", "unit": "ratio"}, {"measurement": "LVEDD", "setting": "+30 min", "value": "65 ± 9", "unit": "mm"}, {"measurement": "LVEF", "setting": "+30 min", "value": "30.1 ± 11.2", "unit": "%"}, {"measurement": "LVESD", "setting": "+30 min", "value": "56 ± 11", "unit": "mm"}, {"measurement": "SV (echocardiography)", "setting": "+30 min", "value": "62.2 ± 23.8", "unit": "mL"}, {"measurement": "TAPSE", "setting": "+30 min", "value": "14.1 ± 5.4", "unit": "mm"}, {"measurement": "Strain", "setting": "+30 min, n = 13", "value": "12.46 ± 4.1", "unit": "%"}, {"measurement": "CO (echocardiography)", "setting": "BL", "value": "3.8 ± 1.5", "unit": "L/min"}, {"measurement": "E/e′", "setting": "BL", "value": "15.2 ± 5.5", "unit": "ratio"}, {"measurement": "LVEDD", "setting": "BL", "value": "66 ± 9", "unit": "mm"}, {"measurement": "LVESD", "setting": "BL", "value": "58 ± 9", "unit": "mm"}, {"measurement": "SV (echocardiography)", "setting": "BL", "value": "54.3 ± 18.4", "unit": "mL"}, {"measurement": "TAPSE", "setting": "BL", "value": "13.0 ± 5.9", "unit": "mm"}, {"measurement": "LVEF", "setting": "BL, Teichholz method", "value": "27.4 ± 7.4", "unit": "%"}, {"measurement": "Strain", "setting": "BL, n = 13 in ghrelin group", "value": "11.9 ± 6.3", "unit": "%"}, {"measurement": "CO (echocardiography)", "setting": "Baseline (Table 10)", "value": "3.8 ± 1.5", "unit": "L/min"}, {"measurement": "E/e′", "setting": "Baseline (Table 10)", "value": "15.2 ± 5.5", "unit": "ratio"}, {"measurement": "LVEDD", "setting": "Baseline (Table 10)", "value": "66 ± 9", "unit": "mm"}, {"measurement": "LVEF", "setting": "Baseline (Table 10)", "value": "27.4 ± 7.4", "unit": "%"}, {"measurement": "LVESD", "setting": "Baseline (Table 10)", "value": "58 ± 9", "unit": "mm"}, {"measurement": "SV (echocardiography)", "setting": "Baseline (Table 10)", "value": "54.3 ± 18.4", "unit": "mL"}, {"measurement": "TAPSE", "setting": "Baseline (Table 10)", "value": "13.0 ± 5.9", "unit": "mm"}, {"measurement": "Strain", "setting": "Baseline (Table 10), n = 12 in ghrelin group", "value": "11.9 ± 6.3", "unit": "%"}, {"measurement": "CO (echocardiography)", "setting": "INF + 60 min", "value": "3.9 ± 1.3", "unit": "L/min"}, {"measurement": "E/e′", "setting": "INF + 60 min", "value": "17.1 ± 9.5", "unit": "ratio"}, {"measurement": "LVEDD", "setting": "INF + 60 min", "value": "67 ± 9", "unit": "mm"}, {"measurement": "LVEF", "setting": "INF + 60 min", "value": "29.1 ± 11.5", "unit": "%"}, {"measurement": "LVESD", "setting": "INF + 60 min", "value": "58 ± 11", "unit": "mm"}, {"measurement": "SV (echocardiography)", "setting": "INF + 60 min", "value": "56.3 ± 21.4", "unit": "mL"}, {"measurement": "TAPSE", "setting": "INF + 60 min", "value": "13.1 ± 4.8", "unit": "mm"}, {"measurement": "Strain", "setting": "INF + 60 min, n = 13", "value": "13.4 ± 4.6", "unit": "%"}, {"measurement": "CO (echocardiography)", "setting": "INF + 120 min", "value": "3.9 ± 1.4", "unit": "L/min"}, {"measurement": "E/e′", "setting": "INF + 120 min", "value": "16.3 ± 8.9", "unit": "ratio"}, {"measurement": "LVEDD", "setting": "INF + 120 min", "value": "67 ± 10", "unit": "mm"}, {"measurement": "LVEF", "setting": "INF + 120 min", "value": "29.8 ± 11.4", "unit": "%"}, {"measurement": "LVESD", "setting": "INF + 120 min", "value": "57 ± 11", "unit": "mm"}, {"measurement": "SV (echocardiography)", "setting": "INF + 120 min", "value": "59.5 ± 25.5", "unit": "mL"}, {"measurement": "TAPSE", "setting": "INF + 120 min", "value": "14.2 ± 5.4", "unit": "mm"}, {"measurement": "Strain", "setting": "INF + 120 min, n = 13", "value": "13.2 ± 5.8", "unit": "%"}, {"measurement": "change in CO by echocardiography", "setting": "in vivo", "value": "trends toward a difference in change of CO in favor of ghrelin; also recorded: a nominal interaction suggesting improvement with ghrelin but no significant differences in change"}, {"measurement": "change in E/e′", "setting": "in vivo", "value": "no differences in change; also recorded: no interaction with or differences in change"}, {"measurement": "change in EF", "setting": "in vivo", "value": "a trend toward a greater absolute (p=0.12) and percent change (p=0.14) in EF with ghrelin; also recorded: a nominal interaction suggesting improvement in EF with ghrelin"}, {"measurement": "change in LVEDD", "setting": "in vivo", "value": "no change or differences in change"}, {"measurement": "change in LVESD", "setting": "in vivo", "value": "no change or differences in change"}, {"measurement": "change in SV by echocardiography", "setting": "in vivo", "value": "a significant difference in change of SV in favor of ghrelin; also recorded: a significant interaction suggesting improvement with ghrelin"}, {"measurement": "change in TAPSE", "setting": "in vivo", "value": "a trend toward a greater difference in change; also recorded: a trend toward an interaction suggesting improvement in TAPSE"}, {"measurement": "segmental strain by echocardiography", "setting": "in vivo", "value": "numerical differences in favor of ghrelin but no statistical significance"}]}
